Results from ChEMBL document CHEMBL5724914, “Linking interpersonal differences in gut microbiota composition and drug biotransformation activity” (2024).

How the values were obtained:
[1] = (§1) The drug is tested on WLS-086 corresponding to human gut metagenome with ENA study accession number: PRJEB37062 and ENA sample accession number: ERS12561752 for biotransformation under anaerobic condition. The drug concentrations were measured over 9 timepoints collected between 0 and 24 hours of incubation by liquid-chromatography-coupled mass spectrometry (LC–MS); settings: 2 µM
[2] = human gut metagenome, 24 h, 2 µM
[3] = human gut metagenome, 24 h, 2 µM; remark: listed apart in the source
[4] = human gut metagenome, 24 h, 2 µM; remark: listed apart in the source
[5] = as §1, with “WLS-082” for “WLS-086”, “ERS12561751” for “ERS12561752”; settings: 2 µM
[6] = human gut metagenome, 24 h, 2 µM; remark: listed apart in the source
[7] = human gut metagenome, 24 h, 2 µM; remark: listed apart in the source
[8] = human gut metagenome, 24 h, 2 µM; remark: listed apart in the source
[9] = as §1, with “WLS-069” for “WLS-086”, “ERS12561748” for “ERS12561752”; settings: 2 µM
[10] = human gut metagenome, 24 h, 2 µM; remark: listed apart in the source
[11] = human gut metagenome, 24 h, 2 µM; remark: listed apart in the source
[12] = as §1, with “WLS-010” for “WLS-086”, “ERS12561743” for “ERS12561752”; settings: 2 µM
[13] = human gut metagenome, 24 h, 2 µM; remark: listed apart in the source
[14] = as §1, with “Z-005” for “WLS-086”, “to” for “to human gut”, “ERS12561805” for “ERS12561752”; settings: 2 µM
[15] = as §1, with “Z-004” for “WLS-086”, “to” for “to human gut”, “ERS12561804” for “ERS12561752”; settings: 2 µM
Further: call rule not given here.

| SMILES | Bacterial Biotransformation [1] | Bacterial Biotransformation [2] | Bacterial Biotransformation [3] | Bacterial Biotransformation [4] | Bacterial Biotransformation [5] | Bacterial Biotransformation [6] | Bacterial Biotransformation [7] | Bacterial Biotransformation [8] | Bacterial Biotransformation [9] | Bacterial Biotransformation [10] | Bacterial Biotransformation [11] | Bacterial Biotransformation [12] | Bacterial Biotransformation [13] | Bacterial Biotransformation [14] | Bacterial Biotransformation [15] |
| --- | --- | --- | --- | --- | --- | --- | --- | --- | --- | --- | --- | --- | --- | --- | --- |
| OC(CCN1CCCCC1)(c1ccccc1)C1CC2C=CC1C2 (configuration not stated) [BIPERIDEN] | Compound metabolized | Compound NOT metabolized | Compound NOT metabolized | Compound metabolized | Compound NOT metabolized | Compound metabolized | Compound NOT metabolized | Compound NOT metabolized | Compound NOT metabolized | Compound metabolized | Compound NOT metabolized | Compound NOT metabolized | Compound NOT metabolized | – | – |
| CN1C[C@H](C(=O)N[C@]2(C)O[C@@]3(O)[C@@H]4CCCN4C(=O)[C@H](Cc4ccccc4)N3C2=O)C=C2c3cccc4[nH]cc(c34)C[C@H]21.CN1C[C@H](C(=O)N[C@]2(C)O[C@@]3(O)[C@@H]4CCCN4C(=O)[C@H](Cc4ccccc4)N3C2=O)C=C2c3cccc4[nH]cc(c34)C[C@H]21.O=C(O)C(O)C(O)C(=O)O [ERGOTAMINE TARTRATE] | Compound metabolized | Compound metabolized | – | Compound metabolized | – | Compound NOT metabolized | Compound metabolized | Compound metabolized | Compound metabolized | Compound metabolized | Compound metabolized | Compound metabolized | Compound metabolized | Compound NOT metabolized | – |
| COC(=O)C1=C(C)NC(C)=C(C(=O)OC(C)C)C1c1cccc2nonc12 (configuration not stated) [ISRADIPINE] | Compound metabolized | Compound metabolized | Compound metabolized | Compound metabolized | Compound metabolized | Compound metabolized | Compound NOT metabolized | Compound metabolized | Compound metabolized | Compound metabolized | Compound metabolized | Compound metabolized | Compound metabolized | – | Compound metabolized |
| CN(C(=O)CN(CCO)CC(=O)N(C)C(C)(C)Cc1ccccc1)C(C)(C)Cc1ccccc1 [OXETHAZAINE] | Compound metabolized | Compound metabolized | Compound metabolized | Compound metabolized | Compound metabolized | Compound metabolized | Compound metabolized | Compound metabolized | Compound metabolized | Compound metabolized | Compound metabolized | Compound metabolized | Compound metabolized | – | – |
